In patent US20100152108A1, “METHODS AND COMBINATION THERAPIES FOR TREATING ALZHEIMER'S DISEASE” (priority 2006, published 2010):
Where “and” joins values, the source holds several entries; their conditions need not be identical. Identical values can stand only once. Like-named read-outs stand apart in the source and are kept apart here.

Tests used:
scopolamine-treated rats = assay: Two-trial object recognition paradigm in scopolamine-treated rats; assay type: in vivo, Sprague-Dawley rats; details: for Memory Performance (N-F, difference in time spent with the novel object and familiar object): scopolamine 0.3 mg/kg i.p., mean ± SEM
Experimental: The two-trial object recognition paradigm developed by Ennaceur and Delacour in the rat was used as a model of episodic memory.
Male Sprague-Dawley rats between six and seven weeks old, weighing between 220-300 grams were obtained from Centre d′Elevage (Rue Janvier, B.P. 55, Le Genest-Saint-Isle 53940, France). The animals were housed in groups of 2 to 4 in polypropylene cages (with a floor area of 1032 cm^2) under standard conditions: at room temperature (22±2° C.), under a 12 hour light/12 hour dark cycle, with food and water provided ad libitum. Animals were permitted to acclimate to environmental conditions for at least 5 days before therapy begins, and were numbered on their tails with indelible marker.
The experimental arena was a square wooden box (60 cm×60 cm×40 cm) painted dark blue, with 15 cm×15 cm black squares under a clear plexiglass floor. The arena and objects placed inside the arena were cleaned with water between each trial to eliminate any odor trails left by rats. The arena was placed in a dark room illuminated only by halogen lamps directed towards the ceiling in order to produce a uniformly dim light in the box of approximately 60 lux. The day before testing, animals were allowed to freely explore the experimental arena for three minutes in the presence of two objects (habituation). Animals to be tested were placed in the experimental room at least 30 minutes before testing.
On the day of the experiment, animals were submitted to two trials separated by an interval of 120 minutes. During the first, or acquisition, trial (T1), rats were placed in the arena, which was prepared with two identical objects. The time required for each animal to complete 15 seconds of object exploration was determined, with a cut-off time of four minutes. […] Rats were placed back in the arena for three minutes, and exploration of both objects was determined. Locomotor activity of rats (number of times rats cross grid lines visible under the clear plexiglass floor) was scored for during T1 and T2. […]
The following parameters were measured: (1) time required to achieve 15 seconds of object exploration during T1; (2) locomotor activity during T1 (number of crossed lines); (3) time spent in active exploration of the familiar object during T2 (TFamiliar); (4) time spent in active exploration of the novel object during T2 (TNovel); and (5) locomotor activity during T2 (number of crossed lines). The difference between time spent in active exploration of the novel object during T2 and time spent in active exploration of the familiar object during T2 (ΔTNovel−TFamiliar) was evaluated. The recognition index [(TNovel−TFamiliar/(TNovel+TFamiliar)] was derived, and the percentage of animals with TNovel−TFamiliar>5 seconds was assessed. […]

[1] = tested on: patients with mild to moderate Alzheimer's disease
Experimental: Patients were evaluated with the ADAS-cog (primary endpoint), CIBIC-plus, MMSE, NPI and ADL at baseline, week 12 and week 26. The Alzheimer's Disease Assessment Scale Cognitive Subscale (ADAS-cog) score assesses memory and cognition over time. The Mini Mental State Exam (MMSE) also assesses memory and cognition. The Alzheimer's Disease Cooperative Study-Clinical Global Impression of Change (ADCS-CGIC, also called CIBIC-plus) measures the patient's global status over time. It takes into account memory, cognition, behavior and motor disturbance. The Neuropsychiatric Inventory (NPI) measures the patients' behavior and psychiatric disturbance in 12 domains including delusions, hallucinations, agitation/aggression, depression/dysphoria, anxiety, elation/euphoria, apathy/indifference, disinhibitions, irritability/lability, motor disturbance, nighttime behaviors, and appetite/eating. An ADL inventory assesses the impact of cognitive impairment on activities of daily living. […] All subjects enrolled were included in the intention-to-treat analysis. Thus, the analysis includes all randomized patients, even those who discontinued the study prior to study completion.

amyloid beta 42 (Aβ42) = details: cultured human cells and animal models; cited from earlier work
[2] = tested on: human neuroblastoma SK-N-SH; details: cited from earlier work
[3] = tested on: release of acetylcholine from the cortex; details: microdialysis; cited from earlier work
[4] = week 26, dimebon 20 mg orally three times a day vs placebo

Question: Which “effect at doses below the maximally effective dose, tested individually” value (scopolamine-treated rats; dimebon 2.5 mg/kg oral, donepezil 0.03 mg/kg intraperitoneal) does the source give for `Cc1ccc2c(c1)c1c(n2CCc2ccc(C)nc2)CCN(C)C1.Cl.Cl` [Dimebon, 2,8-dimethyl-5-(2-(6-methyl-3-pyridyl)-ethyl)-2,3,4,5-tetrahydro-1H-pyrido(4,3-b)indol dihydrochloride] here?
Answer: only partially effective

Question: What about the maximally effective dose (scopolamine-treated rats; oral) of the same molecule?
Answer: 5 mg/kg

Question: And the “Memory Performance (N-F, difference in time spent with the novel object and familiar object)” value (scopolamine-treated rats; vehicle i.p. + Dimebon 2.5 mg/kg p.o.)?
Answer: 2.57 ± 0.95 s

Question: And the “Memory Performance (N-F, difference in time spent with the novel object and familiar object)” value (scopolamine-treated rats; vehicle i.p. + Dimebon 5 mg/kg p.o.)?
Answer: 5.00 ± 2.09 s

Question: And the “all other gastrointestinal side effects combined” value ([1]; in vivo)?
Answer: < 3%

Question: And the “patients who experienced serious adverse events” value ([1]; in vivo)?
Answer: 3.4%

Question: What about the tolerability ([1]; in vivo) of the same molecule?
Answer: well-tolerated

Question: And the “patients who experienced serious adverse events” value ([1]; in vivo, po)?
Answer: 2.2%

Question: What about the “most common adverse event: dry mouth” value ([1]; in vivo, dihydrochloride) of the same molecule?
Answer: 18% and 13.5%

Question: What about the “ADL mean drug-placebo difference” value [1, 4] of the same molecule?
Answer: 3.35 units

Question: What about the “CIBIC-plus mean drug-placebo difference” value [1, 4] of the same molecule?
Answer: 0.61 units

Question: What about the “MMSE mean drug-placebo difference” value [1, 4] of the same molecule?
Answer: 2.24 units

Question: What about the “NPI mean drug-placebo difference” value [1, 4] of the same molecule?
Answer: 3.57 units

Question: And the “ADAS-cog mean drug-placebo difference” value ([1]; week 26, dimebon 20 mg orally three times a day vs placebo, intention-to-treat)?
Answer: 4.0 units

Question: And the “change in the 5 endpoints, mean baseline scores compared with week 26 scores” value ([1]; week 26 vs baseline, ADAS-cog, CIBIC-plus, MMSE, NPI, ADL)?
Answer: significant improvements in all 5 endpoints

Question: And the “ADAS-cog mean drug-placebo difference” value ([1]; week 52, dimebon vs placebo)?
Answer: 6.9 units

Question: What about the “ADL mean drug-placebo difference” value ([1]; week 52, dimebon vs placebo) of the same molecule?
Answer: 5.2 units

Question: What about the “CIBIC-plus mean drug-placebo difference” value ([1]; week 52, dimebon vs placebo) of the same molecule?
Answer: 0.80 units

Question: And the “MMSE mean drug-placebo difference” value ([1]; week 52, dimebon vs placebo)?
Answer: 2.3 units

Question: What about the “NPI mean drug-placebo difference” value ([1]; week 52, dimebon vs placebo) of the same molecule?
Answer: 3.5 units

Question: And the “change in the 5 endpoints, mean baseline scores compared with week 52 scores” value ([1]; week 52 vs baseline, ADAS-cog, CIBIC-plus, MMSE, NPI, ADL)?
Answer: improvements in all 5 endpoints

Question: Which “levels of amyloid beta 42 (Aβ42)” value (amyloid beta 42 (Aβ42)) does the source give for `C[C@@H](C(=O)O)c1ccc(-c2ccccc2)c(F)c1` [Flurizan] here?
Answer: reduces levels

Question: Which “apoptosis-induced levels of holo-APP protein” value [2] does the source give for `C#CCN[C@@H]1CCc2ccc(OC(=O)N(C)CC)cc21` [Ladostigil] here?
Answer: reduces apoptosis-induced levels of holo-APP protein

Question: What about the “phospho PKC and release of the nonamyloidogenic amyloid protein” value [2] of the same molecule?
Answer: increases phospho PKC and the release of the nonamyloidogenic amyloid protein

Question: And the apoptotic cell death ([2]; in response to long term culture)?
Answer: reduces apoptotic cell death

Question: For `CN[C@@H](C)C/C=C/c1cncc(OC(C)C)c1` [TC-1734], which “release of acetylcholine from the cortex” value [3] is on record?
Answer: enhances the release of acetylcholine
